Laboratory results taken from PMC11597089, “Kratom Alkaloids: A Blood–Brain Barrier Specific Membrane Permeability Assay-Guided Isolation and Cyclodextrin Complexation Study” (Molecules, 2024).

Assays:
[1] = ACE complex stability, Phos-β-CD; type: physicochemical; conditions: phosphated-β-CD DS~2-6, 30 mM phosphate buffer pH 7.4, 25 °C
Protocol: (§1) To investigate the CD complexation behavior of the four kratom alkaloids, we aimed to develop an ACE method for a systematic comparative study. […] To ensure sufficient buffer capacity and to avoid excessive current and Joule heat generation, the buffer concentration was set to 30 mM, and the applied voltage was 15 kV.
(§2) The ACE experiments were performed by using Agilent 7100 and HP^3DCE instruments (Agilent Technologies, Waldbronn, Germany). Untreated fused silica capillaries (total length of 48.5 cm, effective length of 40 cm, inner diameter of 50 μm) were purchased from Agilent Technologies. The new capillaries were conditioned with a 1 M NaOH wash for 1 h, followed by a 30 min wash each with 0.1 M NaOH and purified water. Prior to all runs, the capillary was preconditioned by rinsing with background electrolyte for 3 min. During the measurements, 30 mM phosphate buffer at pH 7.4 (30 mM Na2HPO4-NaOH) was used. The background electrolyte contained CDs at various concentrations. Stock solutions of the studied kratom alkaloids (mitragynine, paynantheine, speciogynine, speciociliatine) were prepared separately in methanol (1 mg/mL), and, right before the measurements, appropriate dilutions with purified water were used to prepare the sample solutions, applying 0.1% DMSO as the electroosmotic flow (EOF) marker. The samples were injected hydrodynamically at 40 mbar for 3 s. The positive polarity voltage was set to 15 kV, and the capillary was set to 25 °C. The electropherograms were recorded at four wavelengths (200 nm, 210 nm, 215 nm, and 220 nm), and the data were evaluated at 215 nm. In each case, three parallel measurements were performed. The measurements were evaluated using Origin and CEval software (v. 0.6i3).
(§3) In order to determine the complex stability constants that characterized the strength of the complexes, the first step was to determine the effective mobility of the analyte at specific CD concentrations. Triangular peaks caused by electromigration dispersion are often observed in ACE measurements.
(§4) Assuming a 1:1 complexation ratio and that the equilibrium CD concentration is almost equal to the total CD concentration, a relationship between the effective mobility relative to the EOF and the complex stability constant can be described by Function (4) (4) μeff=μA+μACDKstabCD/1+KstabCD where µeff is the effective mobility of the analyte, µA and µACD are the free and complexed analyte mobilities, [CD] is the concentration of the selector, and Kstab is the complex stability constant.
(§5) In order to calculate the exact, apparent, averaged complex stability constant values, viscosity correction and ionic strength correction were used.

[2] = ACE complex stability, MePIP-β-CD; type: physicochemical; conditions: mono-6^A-(N-methyl-piperidine)-β-CD, positively charged, 30 mM phosphate buffer pH 7.4, 25 °C
Protocol: as §1, §2, §3, §4, §5

[3] = ACE complex stability, HS-β-CD; type: physicochemical; conditions: heptakis-(6-O-sulfo)-β-CD, 30 mM phosphate buffer pH 7.4, 25 °C
Protocol: as §1, §2
as §3, with “measurements. […]” for “measurements.”

[4] = ACE complex stability, CM-β-CD; type: physicochemical; conditions: carboxymethylated-β-CD DS~3, 30 mM phosphate buffer pH 7.4, 25 °C
Protocol: as §1, §2, §3, §4, §5

[5] = ACE complex stability, HxDMS-α-CD; type: physicochemical; conditions: hexakis-(2,3-O-dimethyl, 6-O-sulfo)-α-CD, 30 mM phosphate buffer pH 7.4, 25 °C
Protocol: as §1, §2, §3, §4, §5

[6] = ACE complex stability, SP-β-CD; type: physicochemical; conditions: sulfopropylated-β-CD DS~2, 30 mM phosphate buffer pH 7.4, 25 °C
Protocol: as §1
(§6) The ACE experiments were performed by using Agilent 7100 and HP^3DCE instruments (Agilent Technologies, Waldbronn, Germany). Untreated fused silica capillaries (total length of 48.5 cm, effective length of 40 cm, inner diameter of 50 μm) were purchased from Agilent Technologies. The new capillaries were conditioned with a 1 M NaOH wash for 1 h, followed by a 30 min wash each with 0.1 M NaOH and purified water. Prior to all runs, the capillary was preconditioned by rinsing with background electrolyte for 3 min. During the measurements, 30 mM phosphate buffer at pH 7.4 (30 mM Na2HPO4-NaOH) was used. The background electrolyte contained CDs at various concentrations. […] The electropherograms were recorded at four wavelengths (200 nm, 210 nm, 215 nm, and 220 nm), and the data were evaluated at 215 nm. […] The measurements were evaluated using Origin and CEval software (v. 0.6i3). […]

[7] = ACE complex stability, HMDiSu-β-CD; type: physicochemical; conditions: heptakis-(2-O-methyl, 3,6-O-disulfo)-β-CD, 30 mM phosphate buffer pH 7.4, 25 °C
Protocol: as §1, §2, §3, §4, §5

[8] = ACE complex stability, β-CD; type: physicochemical; conditions: 30 mM phosphate buffer pH 7.4, 25 °C, 15 kV, 215 nm
Protocol: as §1, §2, §3, §4, §5

[9] = ACE complex stability, HPA-β-CD; type: physicochemical; conditions: mono-6^A-(3-hydroxy)propylamino-β-CD, positively charged, 30 mM phosphate buffer pH 7.4, 25 °C
Protocol: as §1, §2, §3, §4, §5

[10] = ACE complex stability, CE-β-CD; type: physicochemical; conditions: carboxyethylated-β-CD DS~3, 30 mM phosphate buffer pH 7.4, 25 °C
Protocol: as §1, §2, §3, §4, §5

[11] = ACE complex stability, α-CD; type: physicochemical; conditions: 30 mM phosphate buffer pH 7.4, 25 °C, 15 kV, 215 nm
Protocol: as §1, §2, §3, §4, §5

[12] = ACE complex stability, HDMS-β-CD; type: physicochemical; conditions: heptakis-(2,3-O-dimethyl, 6-O-sulfo)-β-CD, 30 mM phosphate buffer pH 7.4, 25 °C
Protocol: as §1, §2, §3, §4, §5

[13] = ACE complex stability, Sugammadex; type: physicochemical; conditions: octakis(6-deoxy-6-(2-carboxyethyl)thio)-γ-CD, 30 mM phosphate buffer pH 7.4, 25 °C
Protocol: as §1, §6

[14] = phase-solubility study, β-CD; type: physicochemical; conditions: 30 mM phosphate buffer pH 7.4, room temperature
Protocol: (§7) Based on our ACE measurements, the promising CDs were selected for phase-solubility studies, along with the most widely used CD excipients, to investigate the effect of CD type and its concentration on mitragynine solubility. The experiments were conducted under conditions similar to those in the ACE measurements, applying 30 mM phosphate buffer (pH 7.4) and room temperature.
(§8) UV spectra and chromatograms were recorded at 200–400 nm, and the chromatogram obtained at 226 nm was used for quantitative analyses.
(§9) Solubility measurements were performed according to Higuchi and Connors. To each 1 mg mitragynine sample, the selected cyclodextrins were added. The final concentration of the CDs was in the range of 0–1 (m/v) %. Suspensions were shaken at room temperature for 24 h and filtered using 0.22 μm filters. The mitragynine concentration in the samples was determined by the above-described UHPLC-UV method. The solubility diagrams were constructed, and the stability constant (Kstab) and complexation efficacy (CE) were calculated using the following formulas:(5) Kstab=slope/S0(1−slope) (6) CE=slope/1−slope where S0 is the intrinsic solubility of a poorly soluble drug. The experiments were performed in a 30 mM phosphate buffer (pH 7.4).

[15] = set-up: method as in PMID 25793541; conditions: at neutral pH; cited from earlier work
[16] = phase-solubility study, RAME-β-CD; type: physicochemical; conditions: 30 mM phosphate buffer pH 7.4, room temperature
Protocol: as §7, §8, §9

[17] = ACE complex stability, S-γ-CD; type: physicochemical; conditions: sulfated-γ-CD DS~14, 30 mM phosphate buffer pH 7.4, 25 °C
Protocol: as §1, §6

[18] = set-up: method as in PMID 20454783; conditions: rats, in words; cited from earlier work
[19] = phase-solubility study, SBE-β-CD DS~6.5; type: physicochemical; conditions: 30 mM phosphate buffer pH 7.4, room temperature
Protocol: as §7, §8, §9

[20] = phase-solubility study, Sugammadex; type: physicochemical; conditions: 30 mM phosphate buffer pH 7.4, room temperature
Protocol: as §7, §8, §9

**Q.** For `C=C[C@H]1CN2CCc3c([nH]c4cccc(OC)c34)[C@@H]2C[C@@H]1/C(=C\OC)C(=O)OC` [Paynantheine, paynantheine], which “complex stability constant (Kstab) with Phos-β-CD” value [1] is on record?
**A.** The value was 335 ± 30 M⁻¹.

**Q.** And the “complex stability constant (Kstab) with MePIP-β-CD” value [2]?
**A.** Its value is < 10 M⁻¹.

**Q.** And the “complex stability constant (Kstab) with HS-β-CD” value [3]?
**A.** Its value is 575 ± 35 M⁻¹.

**Q.** What about the “complex stability constant (Kstab) with CM-β-CD” value [4] of the same compound?
**A.** Its value is 185 ± 15 M⁻¹.

**Q.** What about the “complex stability constant (Kstab) with HxDMS-α-CD” value [5] of the same compound?
**A.** Its value is 110 ± 8 M⁻¹.

**Q.** What about the “complex stability constant (Kstab) with SP-β-CD” value [6] of the same compound?
**A.** The value was 335 ± 35 M⁻¹.

**Q.** And the “complex stability constant (Kstab) with HMDiSu-β-CD” value [7]?
**A.** Its value is 350 ± 10 M⁻¹.

**Q.** What about the “complex stability constant (Kstab) with β-CD” value [8] of the same compound?
**A.** The value was 145 ± 15 M⁻¹.

**Q.** And the “complex stability constant (Kstab) with HPA-β-CD” value [9]?
**A.** Its value is < 10 M⁻¹.

**Q.** And the “complex stability constant (Kstab) with CE-β-CD” value [10]?
**A.** Its value is 625 ± 40 M⁻¹.

**Q.** And the “complex stability constant (Kstab) with α-CD” value [11]?
**A.** Its value is 20 ± 2 M⁻¹.

**Q.** What about the “complex stability constant (Kstab) with HDMS-β-CD” value [12] of the same compound?
**A.** The value was 135 ± 14 M⁻¹.

**Q.** What does the source list for `CC[C@@H]1CN2CCc3c([nH]c4cccc(OC)c34)[C@H]2C[C@@H]1/C(=C\OC)C(=O)OC` [Speciociliatine, speciociliatine]?
**A.** complex stability constant (Kstab) with Phos-β-CD [1]: 215 ± 15 M⁻¹; complex stability constant (Kstab) with Sugammadex [13]: 700 ± 45 M⁻¹; complex stability constant (Kstab) with MePIP-β-CD [2]: < 10 M⁻¹; complex stability constant (Kstab) with HS-β-CD [3]: 850 ± 30 M⁻¹; complex stability constant (Kstab) with CM-β-CD [4]: 230 ± 20 M⁻¹; complex stability constant (Kstab) with HxDMS-α-CD [5]: 240 ± 20 M⁻¹; complex stability constant (Kstab) with HMDiSu-β-CD [7]: 100 ± 1 M⁻¹; complex stability constant (Kstab) with β-CD [8]: 35 ± 3 M⁻¹; complex stability constant (Kstab) with HPA-β-CD [9]: < 10 M⁻¹; complex stability constant (Kstab) with CE-β-CD [10]: 160 ± 10 M⁻¹; complex stability constant (Kstab) with α-CD [11]: 22 ± 3 M⁻¹; complex stability constant (Kstab) with HDMS-β-CD [12]: 105 ± 12 M⁻¹

**Q.** Which “complex stability constant (Kstab) with Phos-β-CD” value [1] does the source give for `CC[C@H]1CN2CCc3c([nH]c4cccc(OC)c34)[C@@H]2C[C@@H]1/C(=C\OC)C(=O)OC` [Speciogynine, speciogynine] here?
**A.** The value was 420 ± 30 M⁻¹.

**Q.** What about the “complex stability constant (Kstab) with MePIP-β-CD” value [2] of the same compound?
**A.** The value was < 10 M⁻¹.

**Q.** What about the “complex stability constant (Kstab) with HS-β-CD” value [3] of the same compound?
**A.** The value was 645 ± 30 M⁻¹.

**Q.** And the “complex stability constant (Kstab) with CM-β-CD” value [4]?
**A.** Its value is 170 ± 15 M⁻¹.

**Q.** And the “complex stability constant (Kstab) with HxDMS-α-CD” value [5]?
**A.** Its value is 40 ± 4 M⁻¹.

**Q.** What about the “complex stability constant (Kstab) with HMDiSu-β-CD” value [7] of the same compound?
**A.** The value was 530 ± 10 M⁻¹.

**Q.** And the “complex stability constant (Kstab) with β-CD” value [8]?
**A.** The value was 65 ± 9 M⁻¹.

**Q.** What about the “complex stability constant (Kstab) with HPA-β-CD” value [9] of the same compound?
**A.** The value was < 10 M⁻¹.

**Q.** And the “complex stability constant (Kstab) with CE-β-CD” value [10]?
**A.** Its value is 375 ± 25 M⁻¹.

**Q.** And the “complex stability constant (Kstab) with α-CD” value [11]?
**A.** Its value is 23 ± 5 M⁻¹.

**Q.** What about the “complex stability constant (Kstab) with HDMS-β-CD” value [12] of the same compound?
**A.** The value was 30 ± 3 M⁻¹.

**Q.** Which results are given for mitragynine?
**A.** Kstab with β-CD (phase solubility) ([14]; 24 h, CD 0–1 (m/v) %): 55 M⁻¹; complexation efficacy (CE) with β-CD ([14]; phase solubility): 0.0021; complex stability constant (Kstab) with Phos-β-CD [1]: 290 ± 30 M⁻¹; complex stability constant (Kstab) with Sugammadex [13]: 2050 M⁻¹; complex stability constant (Kstab) with MePIP-β-CD [2]: < 10 M⁻¹; complex stability constant (Kstab) with CM-β-CD [4]: 215 ± 20 M⁻¹; aqueous solubility [15]: 88 µg/mL; Kstab with RAME-β-CD (phase solubility) ([16]; 24 h, CD 0–1 (m/v) %): 60 M⁻¹; complexation efficacy (CE) with RAME-β-CD ([16]; phase solubility): 0.0023; complex stability constant (Kstab) with HxDMS-α-CD [5]: 50 ± 10 M⁻¹; complex stability constant (Kstab) with SP-β-CD [6]: 210 ± 25 M⁻¹; complex stability constant (Kstab) with S-γ-CD [17]: 810 ± 75 M⁻¹; complex stability constant (Kstab) with HMDiSu-β-CD [7]: 230 ± 25 M⁻¹; complex stability constant (Kstab) with β-CD [8]: 145 ± 20 M⁻¹; complex stability constant (Kstab) with HPA-β-CD [9]: < 10 M⁻¹; complex stability constant (Kstab) with CE-β-CD [10]: 210 ± 20 M⁻¹; oral bioavailability [18]: limited; complex stability constant (Kstab) with α-CD [11]: 25 ± 2 M⁻¹; Kstab with SBE-β-CD DS~6.5 (phase solubility) ([19]; 24 h, CD 0–1 (m/v) %): 480 M⁻¹; complexation efficacy (CE) with SBE-β-CD DS~6.5 ([19]; phase solubility): 0.0181; complex stability constant (Kstab) with HDMS-β-CD [12]: 175 ± 7 M⁻¹; Kstab with Sugammadex (phase solubility) ([20]; 24 h, CD 0–1 (m/v) %): 1150 M⁻¹; complexation efficacy (CE) with Sugammadex ([20]; phase solubility): 0.0431
